Assay [1] concerns the target T1, RsiGRr+WhiGRr; Rr (RsiG)2–(c-di-GMP)2–WhiG complex (Rubrobacter radiotolerans, UniProt A0A023X3C8+Z9BF25KB68).
T1 construct: RsiG and WhiG coexpressed from pCOLADuet-1 in E. coli C41(DE3), His-tag on RsiG cut with thrombin; complex of RsiG homodimer and one WhiG
T1 sequence (Z9BF25KB68 1-118): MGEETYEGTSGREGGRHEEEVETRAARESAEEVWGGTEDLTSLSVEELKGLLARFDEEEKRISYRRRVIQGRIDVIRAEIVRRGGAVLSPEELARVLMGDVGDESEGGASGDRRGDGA
T1 sequence (A0A023X3C8 1-273): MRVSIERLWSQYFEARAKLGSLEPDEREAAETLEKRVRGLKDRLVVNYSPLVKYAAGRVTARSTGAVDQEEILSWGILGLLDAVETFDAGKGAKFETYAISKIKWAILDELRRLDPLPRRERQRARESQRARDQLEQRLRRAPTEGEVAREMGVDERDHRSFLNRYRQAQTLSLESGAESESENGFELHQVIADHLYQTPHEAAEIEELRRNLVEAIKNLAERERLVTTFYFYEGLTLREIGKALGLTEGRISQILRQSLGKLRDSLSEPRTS
Kind of assay: fluorescence polarization. Format: binding. Conditions: 25 mM Tris-HCl pH 7.5, 150 mM NaCl, 25 °C, 1 nM probe; RsiG with WhiG; labelled compound. (In general: In fluorescence polarisation assays a small probe gives low polarisation when free and higher when bound to something large.)

In assay [2] the target is T2, RsiGCw+WhiGCw (Conexibacter woesei, UniProt D3EZE5).
T2 construct: gene Cwoe_3492; RsiG and WhiG coexpressed from pCOLADuet-1 in E. coli C41(DE3), His-tag on RsiG cut with thrombin; stoichiometry by analogy with the R. radiotolerans complex
T2 sequence (D3EZE5 1-84): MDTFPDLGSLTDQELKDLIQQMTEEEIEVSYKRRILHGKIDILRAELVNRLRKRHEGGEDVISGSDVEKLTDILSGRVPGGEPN
T2 sequence (UPI0011D1D740 1-268 partner): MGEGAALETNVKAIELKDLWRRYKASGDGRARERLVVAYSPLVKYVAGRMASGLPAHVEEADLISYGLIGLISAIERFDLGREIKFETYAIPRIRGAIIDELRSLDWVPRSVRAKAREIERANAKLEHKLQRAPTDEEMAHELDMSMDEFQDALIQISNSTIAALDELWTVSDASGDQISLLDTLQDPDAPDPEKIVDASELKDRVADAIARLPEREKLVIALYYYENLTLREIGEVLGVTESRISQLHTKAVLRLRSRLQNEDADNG
Briefly: fluorescence polarization. The format is binding. The settings on record: 25 mM Tris-HCl pH 7.5, 150 mM NaCl, 25 °C, 1 nM probe; RsiG with WhiG; labelled compound.

For assay [3], the target named is T3, RsiGCw (Conexibacter woesei, UniProt D3EZE5).
T3 construct: gene Cwoe_3492; full-length single-motif RsiG; pET15b, E. coli C41(DE3), His-tag cut with thrombin; homodimer (two-hybrid)
T3 sequence (D3EZE5 1-84): T2 sequence (D3EZE5 1-84)
Kind of assay: fluorescence polarization. The format is binding. The settings on record: 25 mM Tris-HCl pH 7.5, 150 mM NaCl, 25 °C, 1 nM probe; RsiG alone; labelled compound.

Assay [4] concerns the target T4, RsiGRr (Rubrobacter radiotolerans, UniProt Z9BF25KB68).
T4 construct: full-length single-motif RsiG, 118 residues (a 27-106 construct was made for apo crystals only); pET15b, E. coli C41(DE3), His-tag cut with thrombin; homodimer
T4 sequence (Z9BF25KB68 1-118): T1 sequence (Z9BF25KB68 1-118)
Kind of assay: fluorescence polarization. The format is binding. Conditions: 25 mM Tris-HCl pH 7.5, 150 mM NaCl, 25 °C, 1 nM probe; RsiG alone; labelled compound.

In assay [5] the target is RsiG from Rubrobacter radiotolerans (RsiGRr), co-purified with WhiGRr, His-tag cleaved (Rubrobacter radiotolerans). Kind of assay: crystal structure; Rr (RsiG)2-(c-di-GMP)2-WhiG complex, 2.93 Å; 0.1 M Tris pH 8.0, 0.2 M MgCl2, 23% PEG 3350; c-di-GMP copurified from E. coli, none added.
Assay [6] has as its target RsiGRr(27-106) (L52M-I69M), selenomethionine substituted (Rubrobacter radiotolerans). Briefly: crystal structure; apo RsiGRr crystal form 1; 0.1 M imidazole pH 8.0, 12% isopropyl alcohol, 0.1 M MgCl2; selenomethionine SAD, 1.86 Å; six molecules in the ASU forming three dimers.
Assay [7] deals with RsiGRr(27-106) (Rubrobacter radiotolerans). Briefly: crystal structure; apo RsiGRr crystal form 2; 0.1 sodium acetate pH 4.5, 2.5 M NaCl, 0.2 M lithium sulfate, 0.1 M MgCl2; molecular replacement, 2.55 Å.

As a reminder, the Kd is the constant that tells how readily two partners part at equilibrium. Low values mean tighter binding, high ones weaker binding. One may read the stoichiometry N as a count of units in the complex or per binding partner.

On to “2′-O-(6-[Fluoresceinyl]aminohexylcarbamoyl)-cyclic diguanosine monophosphate [2′-Fluo-AHC–c-di-GMP]”, for which the Kd stood at 0.9 ± 0.05 µM in assay [1], 1.7 ± 0.3 µM in assay [2], 25 ± 2 µM in assay [3] and 12 ± 3 µM in assay [4].
For “RsiG from Rubrobacter radiotolerans (RsiGRr), co-purified with WhiGRr, His-tag cleaved (natural protein)”, in assay [5], the stoichiometry N amounted to 2.
For “RsiGRr(27-106) (L52M-I69M), selenomethionine substituted (domain or fragment)”, in assay [6], the stoichiometry N stood at 2.
As to RsiGRr(27-106) (domain or fragment), the stoichiometry N in assay [7] was 2.

The values are drawn from article PMC8325347, “Evolution of a σ–(c-di-GMP)–anti-σ switch” (Proceedings of the National Academy of Sciences of the …, 2021).
